Columns and labels:
[1] = system: HA, T98G and U251 cell lines; assay: Apoptosis screen across the HA, T98G and U251 cell lines; type: cell-based, human; conditions: oncogene inhibitor paired with miRNA mimic(s) targeting the same oncogene; cell lines listed
[2] = system: HA, T98G and U251 cell lines; assay: Proliferation screen across the HA, T98G and U251 cell lines; conditions: for Signficant Effect on Proliferation (cell lines): oncogene inhibitor paired with miRNA mimic(s) targeting the same oncogene, cell lines listed
GBM cell lines = conditions: 1.85 nM romidepsin, Sawa et al., 2004; cited from earlier work
[3] = Iwamoto et al., 2011; cited from earlier work
U251 = assay: Proliferation in GBM-derived cell line U251; type: cell-based; conditions: Homo sapiens, U-251

In the case of CNC(=O)c1cc(Oc2ccc(NC(=O)Nc3ccc(Cl)c(C(F)(F)F)c3)cc2)ccn1 [Sorafenib, 4-[4-[[4-chloro-3-(trifluoromethyl)phenyl]carbamoylamino]phenoxy]-N-methyl-pyridine-2-carboxamide], the “Significant Effect on Apoptosis (cell lines)” value [1] is reported as “HA, 198G”.

For O=C(CCCCCCC(=O)Nc1ccccc1)NO [Vorinostat, N-Hydroxy-N′-phenyloctanediamide], the “Signficant Effect on Proliferation (cell lines)” value [2] was “HA, U251”.

In the case of C/C=C1\NC(=O)[C@H]2CSSCC/C=C/[C@H](CC(=O)N[C@H](C(C)C)C(=O)N2)OC(=O)[C@H](C(C)C)NC1=O [romidepsin, (1S,4S,7Z,10S,16E,21R)-7-ethylidene-4,21-diisopropyl-2-oxa-12,13-dithia-5,8,20,23-tetrazabicyclo[8.7.6]tricos-16-ene-3,6,9,19,22-pentone], the “Effect in GBM cell lines” value (GBM cell lines) is given as “anti-proliferative and pro-apoptotic”, the half-life in patients [3] is given as “short half-life” and the IC50 (U251) is given as 1.1 nM. For the same compound, the “Rank of single-agent effects on proliferation and apoptosis” value [2] was “strongest effects on proliferation and apoptosis in every cell line” and the “Signficant Effect on Proliferation (cell lines)” value [2] was “HA, U251”.

— US11657895B2, “Methods for identifying treatment targets based on multiomics data” (INSTITUTE FOR SYSTEMS BIOLOGY, priority 2016, dated 2023)
